Data from patent US20050054696A1, “Indole compounds and medicinal use thereof” (priority 2001, published 2005).

Assays:
[1] = molecular target: T1, recombinant human liver glycogen phosphorylase (HLGPa) (Homo sapiens, UniProt P06737); assay: Measurement of liver glycogen phosphorylase activity (enzyme inhibitory activity against HLGPa); format: biochemical; details: Sf9 cell lysate expressing recombinant enzyme; reverse reaction (glycogen synthesis from G1-P), phosphate by malachite green, 60 min room temperature
T1 construct: made in house; host or cells: Sf9 insect cells (unpurified cell lysate used as enzyme solution)
T1 sequence (P06737 1-847): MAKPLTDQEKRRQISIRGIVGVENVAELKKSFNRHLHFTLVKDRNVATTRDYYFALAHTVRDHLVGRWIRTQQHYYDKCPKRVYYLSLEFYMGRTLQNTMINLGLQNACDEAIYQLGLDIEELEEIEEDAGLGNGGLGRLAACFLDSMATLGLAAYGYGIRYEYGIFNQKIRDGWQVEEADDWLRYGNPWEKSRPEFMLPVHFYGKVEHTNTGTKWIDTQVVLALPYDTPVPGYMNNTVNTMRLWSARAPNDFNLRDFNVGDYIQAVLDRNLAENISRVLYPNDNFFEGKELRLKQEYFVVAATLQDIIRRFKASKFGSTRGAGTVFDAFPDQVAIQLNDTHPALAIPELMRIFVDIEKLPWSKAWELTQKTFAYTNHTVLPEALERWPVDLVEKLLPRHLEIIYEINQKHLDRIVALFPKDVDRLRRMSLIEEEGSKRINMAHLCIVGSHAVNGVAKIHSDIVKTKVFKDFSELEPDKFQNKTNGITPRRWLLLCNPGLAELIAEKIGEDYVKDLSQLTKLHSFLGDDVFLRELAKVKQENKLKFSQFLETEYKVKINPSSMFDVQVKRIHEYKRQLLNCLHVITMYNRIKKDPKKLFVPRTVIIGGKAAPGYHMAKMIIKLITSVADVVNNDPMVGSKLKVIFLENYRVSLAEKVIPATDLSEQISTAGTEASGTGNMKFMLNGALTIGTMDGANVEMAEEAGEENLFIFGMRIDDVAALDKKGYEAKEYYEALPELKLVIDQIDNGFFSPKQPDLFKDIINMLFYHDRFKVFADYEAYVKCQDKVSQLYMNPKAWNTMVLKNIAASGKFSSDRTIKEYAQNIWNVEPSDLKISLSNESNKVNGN
Summary of the method: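 Activity was run in the reverse, glycogen-synthesis direction, using Sf9 lysate expressing recombinant human liver glycogen phosphorylase (enzyme solution 80 μg/mL protein, pH 7.0). Substrate solution was Tris pH 7.2 with 1.25 mM glucose-1-phosphate, 2.5 mg/ml glycogen and 7.5 mM glucose, reacted 60 min at room temperature. Released phosphate was measured by malachite green A650, with % inhibition taken against DMSO control and no-enzyme blank.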

[2] = test system: db/db mice; assay: Measurement of plasma glucose concentration in obesity type diabetes model db/db mice; format: in vivo; details: Mus musculus, po; plasma glucose 1 and 3 hr after administration, after fasting for 4 hr; significant difference vs solvent group (Dunnett's test); read-out: Minimum effective dose db/db mouse
Description: Measurement Method of Plasma Glucose Concentration
Using obesity type diabetes model db/db mice, the effect of the compound (1) of the present invention on glucose concentration in plasma was examined. The glucose concentration in the plasma of db/db mice (10-15 weeks of age) was measured, and the mice were grouped into 5 mice per group such that the average glucose concentration of plasma is leveled. After fasting for 4 hr, the test drug or a solvent (0.5% methyl cellulose) was orally administered to db/db mice, and plasma glucose concentration at 1 and 3 hr after the administration was measured. The hypoglycemic effect of the test drug was evaluated by detecting a significant difference every hour between the solvent administration group and the test drug administration group (Dunnett's test).

| IC50 [1] [nM] | Compound | minimal effective dose [2] [mg/kg] |
| --- | --- | --- |
| 65 | O=C(NN1C(=O)N[C@H](c2ccccc2)C1=O)c1cc2cc(Cl)ccc2[nH]1 [Example 4-6, 5-chloro-1H-indole-2-carboxylic acid ((4R)-2,5-dioxo-4-phenylimidazolidin-1-yl)amide] | 10 |
| 96 | COc1ccc([C@@H]2NC(=O)N(NC(=O)c3cc4cc(Cl)ccc4[nH]3)C2=O)cc1 [Example 4-19, 5-chloro-1H-indole-2-carboxylic acid ((4S)-2,5-dioxo-4-(4-methoxyphenyl)imidazolidin-1-yl)amide] | 10 |
| 80 | CS(=O)(=O)O.N=C(NNC(=O)c1cc2cc(Cl)ccc2[nH]1)c1ccccc1 [Example 6-17, 5-chloro-1H-indole-2-carboxylic acid 2-(imino-phenyl-methyl)hydrazide methanesulfonate] | 3 |
| 53 | Cl.N=C(NNC(=O)c1cc2cc(Cl)ccc2[nH]1)c1ccccc1F [Example 6-19, 5-chloro-1H-indole-2-carboxylic acid 2-((2-fluorophenyl)-imino-methyl)hydrazide hydrochloride] | 3 |
| 110 | CS(=O)(=O)O.N=C(NNC(=O)c1cc2cc(Cl)ccc2[nH]1)c1ccccc1F [Example 6-20, 5-chloro-1H-indole-2-carboxylic acid 2-((2-fluorophenyl)-imino-methyl)hydrazide methanesulfonate] | 3 |

Second part, the compound before the results:

| Compound | IC50 [1] [nM] | minimal effective dose [2] [mg/kg] |
| --- | --- | --- |
| O=C(NN1C(=O)N[C@@H](c2ccccc2)C1=O)c1cc2cc(Cl)ccc2[nH]1 (stereo in doubt) [Example 4, N-(2,4-dioxo-5-phenylimidazolidin-3-yl)-5-chloro-1H-indole-2-carboxamide] | 85 | 10 |
| Nc1ccccc1C(=O)NNC(=O)c1cc2cc(Cl)ccc2[nH]1 [Example 1-2, 2-Aminobenzoic acid 2-(5-chloro-1H-indole-2-carbonyl)hydrazide] | 13 | 10 |
| O=C(NNC(=O)c1cc2cc(Cl)ccc2[nH]1)c1c[nH]cn1 [Example 1-81, 1H-imidazole-4-carboxylic acid 2-(5-chloro-1H-indole-2-carbonyl)hydrazide] | 28 | 10 |
| Cc1ccc(C(=O)NNC(=O)c2cc3cc(Cl)ccc3[nH]2)s1 [Example 1-88, 5-methylthiophene-2-carboxylic acid 2-(5-chloro-1H-indole-2-carbonyl)hydrazide] | 20 | 10 |
| Cc1cccc(C(=N)NNC(=O)c2cc3cc(Cl)ccc3[nH]2)c1 [Example 1-134, 5-chloro-1H-indole-2-carboxylic acid 2-(imino-(m-tolyl)-methyl)hydrazide] | 40 | 10 |
| O=C(Nn1c(=O)[nH]c2cccc(Cl)c2c1=O)c1cc2cc(Cl)ccc2[nH]1 [Example 2-17, 5-chloro-1H-indole-2-carboxylic acid (5-chloro-1,2,3,4-tetrahydro-2,4-dioxoquinazolin-3-yl)amide] | 37 | 10 |
| Cc1ccc2[nH]c(C(=O)Nn3c(=O)[nH]c4ccccc4c3=O)cc2c1 [Example 2-23, 5-methyl-1H-indole-2-carboxylic acid (1,2,3,4-tetrahydro-2,4-dioxoquinazolin-3-yl)amide] | 24 | 3 |
| Cc1ccc2[nH]c(C(=O)Nn3c(=O)[nH]c4cc(F)ccc4c3=O)cc2c1 [Example 2-24, 5-methyl-1H-indole-2-carboxylic acid (7-fluoro-1,2,3,4-tetrahydro-2,4-dioxoquinazolin-3-yl)amide] | 17 | 3 |
| O=C(NN1C(=O)CCNC1=O)c1cc2cc(Cl)ccc2[nH]1 [Example 3, N-(2,4-dioxo-perhydropyrimidin-3-yl)-5-chloro-1H-indole-2-carboxamide] | > 100 | 10 |
| O=C(NN1C(=O)NC(c2ccc(F)cc2)C1=O)c1cc2cc(Cl)ccc2[nH]1 (stereo not shown) [Example 4-16, 5-chloro-1H-indole-2-carboxylic acid (2,5-dioxo-4-(4-fluorophenyl)imidazolidin-1-yl)amide] |  | 10 |
| Cl.N=C(NNC(=O)c1cc2cc(Cl)ccc2[nH]1)c1ccccc1 [Example 6, 5-chloro-1H-indole-2-carboxylic acid 2-(imino-phenyl-methyl)hydrazide hydrochloride] | 62 | 3 |
| N=C(NNC(=O)c1cc2cc(Cl)ccc2[nH]1)c1ccccc1Cl.O=C(O)/C=C\C(=O)O [Example 6-18, 5-chloro-1H-indole-2-carboxylic acid 2-((2-chlorophenyl)-imino-methyl)hydrazide butenedioic acid salt] | 49 | 3 |
| CS(=O)(=O)O.N=C(Cc1ccccc1)NNC(=O)c1cc2cc(Cl)ccc2[nH]1 [Example 6-21] |  | 10 |
